Results from patent US5026726A, “Gossylic iminolactones and gossylic lactones and their anti-viral activities” (The University of New Mexico, priority 1989, dated 1991).

Columns and labels:
[1] = test system: HIV-1 virus (HIV-infected MT4 cells); assay: Anti-HIV-1 activity in infected MT4 cells (% IFA positive cells, 6 days); assay type: cell-based, human immunodeficiency virus (HIV-1), LAV-A isolate
Procedure: (§1) The above % IFA positive cells were determined 6 days after addition of HIV-1 virus. Cell viability is % viable cells relative to mock-treated cells or controls. FIGS. 1-A through D show one of many representative set of data.
An LAV-A isolate of human immunodeficiency virus (HIV-1) was used in this study. LAV-A was originally isolated by Dr. L. Montagnier, Pasteur Institute, Paris, and was obtained from Dr. T. Folks, NIAID.
MT4 cells, 10^7 cells/ml, were infected for 1 hour at 4° C., with stock HIV-1 virus, 0.5 ml stock/10^7 cells.
(§2) The infected cells were then resuspended in a complete medium (RPMI 1640 with 20% FBS, L-glutamine, 2 mM, penicillin, 100 units/ml, and streptomycin, 100 ug/ml). Aliquots were added to 24-well tissue culture plates containing varying concentrations of Compounds I, II, III and IV in complete media. The final cell concentration was 1.5×10^5 cells/ml.
(§3) Positive control wells received no drug. Negative control wells received mock-treated MT4 cells. Cells were incubated at 37° C. in 5% CO2. Media was changed after 3 days with fresh complete media containing the appropriate drug.
The percent HIV-1 viral infection was determined by an immunofluorescence assay (IFA) using heat-inactivated, pooled human anti-sera from HIV-positive patients as the first antibody and goat anti-human IgG conjugated with FITC as the second antibody. This is a standard immunoassay known in the art.
Slides were counterstained with Evans blue to obtain total cell counts from the same slides as is known in the art. Uninfected cells were consistently negative for fluorescence.

[2] = Cytotoxicity to MT4 cells (trypan blue exclusion); assay type: cell-based; conditions: human, mt4 cells; for MCC at 144 h: read-out: concentration at which toxicity to the host cell was shown
Procedure: as §1, §2, §3
(§4) After 6 days, the viability of the MT4 cells, control or infected, was determined by trypan blue exclusion, which is a standard procedure to determine cell viability.

[3] = test system: MT4 cells; assay: Cytotoxicity to MT4 cells (trypan blue exclusion); assay type: cell-based; conditions: for toxicity to the host cell: MT4 cells
Procedure: as §1, §2, §3, §4

[4] = test system: billirubin binding site of the protein albumin; conditions: literature; cited from earlier work
[5] = test system: parainfluenza type 3; conditions: literature; cited from earlier work
[6] = test system: herpes simplex viruses; conditions: literature; cited from earlier work
[7] = test system: Trypanosoma cruzi; conditions: literature; cited from earlier work
[8] = test system: Plasmodium falcicarum; conditions: literature; cited from earlier work
[9] = test system: herpes simplex virus type II; conditions: literature; cited from earlier work
[10] = test system: reverse transcriptase (RT); conditions: literature; cited from earlier work
[11] = literature; cited from earlier work
[12] = test system: HIV virus; conditions: after prolonged exposure, literature; cited from earlier work

Structure (SMILES): CC(=O)Oc1c(-c2c(C)cc3c(C(C)C)c(O)c(O)c(C#N)c3c2OC(C)=O)c(C)cc2c(C(C)C)c(O)c(O)c(C#N)c12 [Compound II, Gossylic nitrile-1,1'-diacetate]
- inhibition at 50 µM ([1]; Human immunodeficiency virus 1, 144 h, 50 uM, 6 days, read-out: inhibition of virus replication): ~50%
- MCC at 144 h [2]: 250 µM

Structure (SMILES): Cc1cc2c(C(C)C)c(O)c(O)c(C=O)c2c(O)c1-c1c(C)cc2c(C(C)C)c(O)c(O)c(C=O)c2c1O [Compound I, gossypol]
- inhibition of virus replication ([1]; 1 uM, 6 days): approximately 50%
- toxicity to the host cell ([3]; 1 uM): significant toxicity to the host cell
- binding to the bilirubin binding site of albumin [4]: bind tightly
- antiviral properties: inactivation of parainfluenza type 3 [5]: capable of inactivating
- antiviral properties: inactivation of herpes simplex viruses [6]: capable of inactivating
- growth of Trypanosoma cruzi [7]: inhibited
- growth of Plasmodium falcicarum [8]: inhibited
- antiviral activity against herpes simplex virus type II [9]: exhibit antiviral activities

Structure (SMILES): Cc1cn([C@H]2C[C@H](N=[N+]=[N-])[C@@H](CO)O2)c(=O)[nH]c1=O [AZT, 3'-azido-2',3'-dideoxythymidine]
- inhibition of reverse transcriptase [10]: inhibitor of the enzyme reverse transcriptase
- toxicity limiting use in HIV-infected patients [11]: hematologic toxicity limits, and in some cases precludes, the use
- development of HIV resistance [12]: may develop resistance

Structure (SMILES): Cc1cc2c(C(C)C)c(O)c(O)c3c2c(c1-c1c(C)cc2c(C(C)C)c(O)c(O)c4c2c1OC4=O)OC3=O [Compound IV, gossylic lactone]
- antiviral activity ([1]; below 250 uM): very little antiviral activity
- toxicity to the MT4 cell ([3]; 250 uM): pronounced toxicity

Structure (SMILES): Cc1cc2c(C(C)C)c(O)c(O)c3c2c(c1-c1c(C)cc2c(C(C)C)c(O)c(O)c4c2c1OC4=N)OC3=N [Compound III, gossylic iminolactone]
- inhibition at 1 µM ([1]; Human immunodeficiency virus 1, 144 h, 1 uM, 6 days, read-out: inhibition of virus replication): ~50%
- EC50 ([1]; Human immunodeficiency virus 1, 144 h, read-out: ED50 (the source's name)): 1 µM
- CC50 at 144 h [2]: 25 to 50 µM
- MCC at 144 h [2]: 50 µM
- toxicity to the host cell ([3]; until the drug concentration reached 50 uM): no toxicity to the host cell
